Laboratory results from patent US8604167B2, “CD133 epitopes” (ImmunoCellular Therapeutics, Ltd., priority 2009, dated 2013).

Columns and labels:
CD8+ T cells [1] = test: Peptide-HLA-A2 dimer staining of CTL stimulated with peptide-pulsed DC; assay type: cell-based, human; conditions: for peptide dimer staining relative to background, in words: summary of Table 7
Method: (§1) HLA-A2 positive PBMC isolated by leukapheresis from two healthy human subjects were obtained from HemaCare Corporation (Van Nuys, Calif.). The PBMC from each subject were used to prepare CD8+ T cells and autologous dendritic cells for stimulation with immunogenic peptides. Following stimulation, the T cells were subjected to functional assays.
(§2) CD8+ T cells were prepared from each subject's PBMC by positive selection using CD8 MicroBeads (Miltenyi Biotec, Bergisch Gladbach, Germany), according to the manufacturer's instructions.
(§3) Autologous DC were prepared from adherent PBMC (2×10^6 cells/ml) cultured for 5 days in the presence of 500 IU/ml granulocyte macrophage colony-stimulating factor (Leucomax; Schering-Plough, Kenilworth, N.J.) and 500 IU/ml IL-4 (R&D Systems, Minneapolis, Minn.) in complete medium [RPMI 1640 supplemented with 10% heat-inactivated human AB serum, […] L-glutamine (Invitrogen) and antibiotics]. On day 5, DC maturation was induced by addition of 50 ng/ml TNF-α. On day 7, the mature DC were collected and pulsed with 20 μg/ml peptide for 4 hours at 20° C. Peptide-pulsed DC not used immediately were frozen for later use.
The peptide pulsed matured DC were diluted to 3×10^5 cells/mL in CTL complete medium and irradiated at 2800 Rads. The initial in vitro stimulation was performed at a DC:T cell ratio of 1:5 by plating 100 μL/well of each batch of DC into a 96 well round bottom tissue culture plate (3×10^4 DC/well). One plate was prepared per peptide. To all wells, 100 μL of the CD8+ enriched T cell population was added at 1.5×10^6 cells/mL was added, resulting in a final concentration of 1.5×10^5 T-cells/well. Plates were incubated at 37° C., 5% carbon dioxide, and high humidity.
On days 7 and 14, cryopreserved peptide pulsed mature DC were thawed and used to restimulate the T-cells. Cryopreserved samples of each peptide pulsed DC batch were removed from liquid nitrogen and thawed rapidly in a 37° C. water-bath. Samples were diluted at least 1:10 with AIM V medium (Invitrogen, Carlsbard, Calif.). Samples were washed twice by centrifugation at 400 g for 7 minutes, and representative samples were evaluated for cell concentration and viability. Each DC batch was diluted to 3×10^5 cells/mL in CTL complete medium containing 20 U/mL IL-2, 10 ng/mL IL-7, and 2 μg/mL of the specific peptide, and the DC were irradiated with 2800 Rads. In vitro stimulation plates were removed carefully from the incubator and 90 μL of supernatant (no cells) were removed from each well. To each well, 100 μL of the appropriate DC batch was added. Plates were then incubated further at 37° C., 5% carbon dioxide, and high humidity.
After the second in vitro stimulation, the plates were checked daily for T-cell proliferation. When required, plates were split (one plate will become two plates) to avoid overgrowth of the CTL. […] The plates were mixed to ensure a homogenous population, then 90 μL of each CTL well was transferred into a new 96 well U bottomed plate. When splitting was performed within 3 days of the last in vitro stimulation, 100 μL of CTL complete medium containing 20 U/mL IL-2 and 10 ng/mL IL-7 was added. If splitting was performed later than 3 days from the last in vitro stimulation, 100 μL of complete CTL medium containing 40 U/mL IL-2 and 20 ng/mL IL-7 was added. Split plates were returned to the incubator at 37° C., 5% carbon dioxide, and high humidity.
On day 21, the T cells were stimulated a fourth time. The process described for in vitro stimulations 2-3 was repeated with the exception that IL-2 was replaced with 25 ng/mL IL-15.
Stimulated CTL were assayed for staining using peptide-HLA-A2 dimers. Cells were collected 19 days after the third stimulation (subject 1) or 6 days after the fourth stimulation (subjects 1 and 2).

HLA-A*0201 = HLA-A*0201 (Homo sapiens, UniProt P04439, D140Y/D185E/D98H/E176V/E277Q/G131W/G231S/I119V/I121R/I166T/I218V/L300P/L318F/N151K/N90K/P208A/P217A/Q86G/Q94H/R138H/R169H/T345S); test: REVEAL MHC binding assay, HLA-A*0201; conditions: HLA-A*0201 binding, relative to positive control peptide
Text: Fifty-five of the candidate peptides were assembled with HLA-A*0201 and analyzed for MHC binding to determine their level of incorporation into MHC molecules using the REVEAL™ MHC binding assay (ProImmune Ltd., Oxford, UK). Binding to MHC molecules was compared to that of two known T-cell epitopes: an intermediate control peptide and a positive control peptide with weak and very strong binding properties, respectively. Eleven peptides bound to HLA-A*0201 as well or better than the positive control, as indicated on Table 5.

CD8+ T cells [2] = test: IFN-γ ELISPOT of CTL stimulated with peptide-pulsed DC; assay type: cell-based, human; design: key to ELISPOT IFN-γ spots vs negative control: ++: Wells that clearly had more spots than the negative control were indicated as positive
Method: as §1, §2
as §3, with “use. […]” for “use.”
On days 7 and 14, cryopreserved peptide pulsed mature DC were thawed and used to restimulate the T-cells. […] Samples were washed twice by centrifugation at 400 g for 7 minutes, and representative samples were evaluated for cell concentration and viability. […]

Row | Substance | percentages of cells that stained positive (above background) for both dimer and CD8 (CD8+ T cells [1]; Subject 1, 3rd stim) [%] | percentages of cells that stained positive (above background) for both dimer and CD8 (CD8+ T cells [1]; Subject 1, 4th stim) [%] | percentages of cells that stained positive (above background) for both dimer and CD8 (CD8+ T cells [1]; Subject 2, 4th stim) [%] | peptide dimer staining relative to background, in words (CD8+ T cells [1]) | % Positive Control (HLA-A*0201) [%] | ELISPOT IFN-γ spots vs negative control (CD8+ T cells [2]; Subject 2, 4th stim) | ELISPOT result in words (CD8+ T cells [2]; subject 3 (so in the source))
1 | 28 (ILSAFSVYV; listed as Homo sapiens) [compound 28] | 4.15 | 0.12 | 14.08 | stained moderately above background |  |  | 
2 | 19 (SQLNSNPEL; listed as Homo sapiens) [compound 19] |  |  |  |  | 163.06 |  | 
3 | 11 (YLQWIEFSI; listed as Homo sapiens) [compound 11] | 38.64 | 20.74 | 19.39 | stained strongly above background |  | ++ | clearly positive
4 | 20 (GLLERVTRI; listed as Homo sapiens) [compound 20] | 0.27 | −0.41 | −0.32 | indistinguishable from background |  |  | 
5 | 21 (FLLPALIFA; listed as Homo sapiens) [compound 21] | 20.43 | 13.23 | 21.18 | stained strongly above background |  |  | 
